# Laboratory results from patent US20200017495A1, “NOVEL HETEROCYCLIC COMPOUNDS AND THEIR USE IN PREVENTING OR TREATING BACTERIAL INFECTIONS” (priority 2017, published 2020).
# Where “and” joins values, the source holds several entries; their conditions need not be identical. Identical values can stand only once. Like-named read-outs stand apart in the source and are kept apart here.
# What was measured:
# [1] = system: Citrobacter koseri (CKR) isolates; test: MIC of compounds alone and combined with antibacterials, broth microdilution (CLSI); assay type: cell-based
# Method in brief: (§1)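 Antibacterial MICs in combination were determined at every compound concentration tested, alongside compound MICs alone. Bacteria grew in cation-adjusted Mueller-Hinton broth starting from 5.10^5 CFU/mL, incubated at 35° C for 16-20 h, and endpoints were the lowest concentrations with no visible growth.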
# [2] = system: Escherichia coli (ECO) isolates; test: as above; assay type: cell-based
# Method in brief: as §1
compound,measurement,setting,value
"CC1(C)S[C@@H]2[C@H](NC(=O)[C@H](N)c3ccc(O)cc3)C(=O)N2[C@H]1C(=O)O [AMX, Amoxicillin]",MIC ATB in combination,[1],>128 µg/mL
same,MIC ATB in combination,"[1]; CKO ROU, AF2 @ 8 μg/mL",8 µg/mL
same,MIC,"[1]; strain CKO ROU, genotype TEM-1, SHV-12, CTX-M-15, OXA-1, OXA-48",>256 µg/mL
same,MIC,"[1]; strain CKO UFR149, genotype OXA-48",>128 µg/mL
same,MIC,"[1]; strain CKO UFR150, genotype TEM-1, OXA-48",>128 µg/mL
same,MIC ATB in combination,[2],>128 µg/mL and 128 µg/mL
same,MIC ATB in combination,"[2]; ECO 4133, AF2 @ 8 μg/mL",<0.25 µg/mL
same,MIC ATB in combination,"[2]; ECO 5302, AF2 @ 8 μg/mL",<0.25 µg/mL
same,MIC ATB in combination,"[2]; ECO 131119, AF2 @ 8 μg/mL",<0.25 µg/mL
same,MIC ATB in combination,"[2]; ECO 131119, CLA @ 4 μg/mL",>512 µg/mL
same,MIC ATB in combination,"[2]; ECO 180070, AF2 @ 8 μg/mL",<0.25 µg/mL
same,MIC ATB in combination,"[2]; ECO 180070, CLA @ 4 μg/mL",16 µg/mL
same,MIC ATB in combination,"[2]; ECO 190314, AF2 @ 8 μg/mL",<0.25 µg/mL
same,MIC ATB in combination,"[2]; ECO 190314, CLA @ 4 μg/mL",8 µg/mL
same,MIC ATB in combination,"[2]; ECO 190317, AF2 @ 8 μg/mL",<0.25 µg/mL
same,MIC ATB in combination,"[2]; ECO 190317, CLA @ 4 μg/mL",64 µg/mL
same,MIC ATB in combination,"[2]; ECO 190457, AF2 @ 8 μg/mL",<0.25 µg/mL
same,MIC ATB in combination,"[2]; ECO 190549, AF2 @ 8 μg/mL",<0.25 µg/mL
same,MIC ATB in combination,"[2]; ECO 190549, CLA @ 4 μg/mL",8 µg/mL
same,MIC ATB in combination,"[2]; ECO 200159, AF2 @ 8 μg/mL",<0.25 µg/mL
same,MIC ATB in combination,"[2]; ECO 200159, CLA @ 4 μg/mL",8 µg/mL
same,MIC ATB in combination,"[2]; ECO 200259, AF2 @ 8 μg/mL",<0.25 µg/mL
same,MIC ATB in combination,"[2]; ECO 200259, CLA @ 4 μg/mL",8 µg/mL
same,MIC ATB in combination,"[2]; ECO 200344, AF2 @ 8 μg/mL",<0.25 µg/mL
same,MIC ATB in combination,"[2]; ECO 200344, CLA @ 4 μg/mL",16 µg/mL
same,MIC ATB in combination,"[2]; ECO 260096, AF2 @ 8 μg/mL",0.5 µg/mL
same,MIC ATB in combination,"[2]; ECO 260096, CLA @ 4 μg/mL",4 µg/mL
same,MIC ATB in combination,"[2]; ECO 260304, AF2 @ 8 μg/mL",<0.25 µg/mL
same,MIC ATB in combination,"[2]; ECO 260304, CLA @ 4 μg/mL",4 µg/mL
same,MIC ATB in combination,"[2]; ECO 260508, AF2 @ 8 μg/mL",<0.25 µg/mL
same,MIC ATB in combination,"[2]; ECO 260508, CLA @ 4 μg/mL",64 µg/mL
same,MIC ATB in combination,"[2]; ECO RGN238, AF2 @ 8 μg/mL",<0.25 µg/mL
same,MIC ATB in combination,"[2]; ECO UFR15, AF2 @ 8 μg/mL",<0.25 µg/mL
same,MIC ATB in combination,"[2]; ECO UFR16, AF2 @ 8 μg/mL",<0.25 µg/mL
same,MIC ATB in combination,"[2]; ECO UFR18, AF2 @ 8 μg/mL",<0.25 µg/mL
same,MIC ATB in combination,"[2]; ECO UFR19, AF2 @ 8 μg/mL",<0.25 µg/mL
same,MIC ATB in combination,"[2]; ECO UFR32, AF2 @ 8 μg/mL",<0.25 µg/mL
same,MIC ATB in combination,"[2]; ECO UFR39, AF2 @ 8 μg/mL",<0.25 µg/mL
same,MIC ATB in combination,"[2]; ECO UFR41, AF2 @ 8 μg/mL",<0.25 µg/mL
same,MIC ATB in combination,"[2]; ECO UFR45, AF2 @ 8 μg/mL",<0.25 µg/mL
same,MIC ATB in combination,"[2]; ECO UFR61O, AF2 @ 8 μg/mL",4 µg/mL
same,MIC ATB in combination,"[2]; ECO UFR62, AF2 @ 8 μg/mL",<0.25 µg/mL
same,MIC ATB in combination,"[2]; ECO UFR74, AF2 @ 8 μg/mL",<0.25 µg/mL
same,MIC ATB in combination,"[2]; ECO UFR86, AF2 @ 8 μg/mL",2 µg/mL
same,MIC ATB in combination,"[2]; ECO UFR86, CLA @ 4 μg/mL",8 µg/mL
same,MIC ATB in combination,"[2]; ECO UFR209, CLA @ 4 μg/mL",32 µg/mL
same,MIC ATB in combination,"[2]; ECO UFR210, CLA @ 4 μg/mL",8 µg/mL
same,MIC ATB in combination,"[2]; ECO UFR211, CLA @ 4 μg/mL",8 µg/mL
same,MIC,"[2]; strain ECO 4133, genotype TEM-30, OXA-1",>256 µg/mL
same,MIC,"[2]; strain ECO 5302, genotype TEM-1, OXA-1",>256 µg/mL
same,MIC,"[2]; strain ECO 131119, genotype TEM-1, OXA-48",>1024 µg/mL
same,MIC,"[2]; strain ECO 180070, genotype TEM-1, CTX-M-15",>256 µg/mL
same,MIC,"[2]; strain ECO 190314, genotype CTX-M-1",>256 µg/mL
same,MIC,"[2]; strain ECO 190317, genotype TEM-1, SHV-12, CTX-M-15, OXA-1",>1024 µg/mL
same,MIC,"[2]; strain ECO 190457, genotype CTX-M-15, OXA-1",>256 µg/mL
same,MIC,"[2]; strain ECO 190549, genotype CTX-M-1",>256 µg/mL
same,MIC,"[2]; strain ECO 200159, genotype TEM-1, CTX-M-14",>256 µg/mL
same,MIC,"[2]; strain ECO 200259, genotype CTX-M-14",>256 µg/mL
same,MIC,"[2]; strain ECO 200344, genotype CTX-M-1",>256 µg/mL
same,MIC,"[2]; strain ECO 260096, genotype CTX-M-132",>256 µg/mL
same,MIC,"[2]; strain ECO 260304, genotype CTX-M-15",>256 µg/mL
same,MIC,"[2]; strain ECO 260508, genotype TEM-1, CTX-M-15, OXA-1",>256 µg/mL
same,MIC,"[2]; strain ECO RGN238, genotype OXA-1",>1024 µg/mL
same,MIC,"[2]; strain ECO UFR15, genotype TEM-1, OXA-48",>256 µg/mL
same,MIC,"[2]; strain ECO UFR16, genotype TEM-1, CTX-M-15, OXA-1, OXA-48",>256 µg/mL
same,MIC,"[2]; strain ECO UFR17, genotype TEM-1, CTX-M-15, CMY-2, OXA-1, OXA-181",>256 µg/mL
same,MIC,"[2]; strain ECO UFR18, genotype CTX-M-15, OXA-204",>256 µg/mL
same,MIC,"[2]; strain ECO UFR19, genotype CTX-M-15, CMY-2, OXA-1, OXA-204",>256 µg/mL
same,MIC,"[2]; strain ECO UFR20, genotype SHV-1, CTX-M-15, OXA-1, OXA-232",>256 µg/mL
same,MIC,"[2]; strain ECO UFR32, genotype TEM-1, VEB-1, OXA-10",>256 µg/mL
same,MIC,"[2]; strain ECO UFR39, genotype CTX-M-15, NDM-1",>1024 µg/mL
same,MIC,"[2]; strain ECO UFR41, genotype TEM-1, CTX-M-15, CMY-2, OXA-1, NDM-4",>256 µg/mL
same,MIC,"[2]; strain ECO UFR45, genotype TEM-1, CMY-4, OXA-1, OXA-48, VIM-1",>256 µg/mL
same,MIC,"[2]; strain ECO UFR52, genotype TEM-1, SHV-12, IMP-8",>256 µg/mL
same,MIC,"[2]; strain ECO UFR61O, genotype TEM-1, KPC-2",>256 µg/mL
same,MIC,"[2]; strain ECO UFR62, genotype TEM-1, CTX-M-9, KPC-2",>256 µg/mL
same,MIC,"[2]; strain ECO UFR74, genotype SHV-1, DHA-1",>256 µg/mL
same,MIC,"[2]; strain ECO UFR86, genotype ompC-, ompF-",16 µg/mL
